Reference: patent US11547681B2, “N-acylethanolamide derivatives and uses thereof” (ELIEM THERAPEUTICS, INC., priority 2016, dated 2023)
Like-named read-outs stand apart in the source and are kept apart here.

Test: Simulated intestinal fluid (SIF) stability in the presence of various enzymes
Assay type: in vitro ADME
Conditions: for % Remaining of Initial: n = 1
Protocol: (§1) Studies were carried out in simulated intestinal fluid in the presence of various enzymes. Simulated intestinal fluid was prepared by dissolving 6.8 g of monobasic potassium phosphate in 1.0 L of water. Aliquots of this solution were taken and the pH was adjusted to 6.8. Individual enzymes were then spiked into aliquots for each experiment. A DMSO stock was first prepared for the test article. Aliquots of the DMSO solution were dosed into 700 μL of matrix, which had been pre-warmed to 37° C., at a final test article concentration of 1 μM. […] Samples were stored at 4° C. until the end of the experiment. After the final time point was sampled, the plate was mixed and then centrifuged at 3,000 rpm for 10 minutes. Calibration standards were prepared in matched matrix. […] Analytical conditions are outlined in Appendix 8-1.
as §1, with “10-1.” for “8-1.”
Studies were carried out in simulated intestinal fluid in the presence of various enzymes. Simulated intestinal fluid was prepared by dissolving 6.8 g of monobasic potassium phosphate in 1.0 L of water. Aliquots of this solution were taken and the pH was adjusted to 6.8. Individual enzymes were then spiked into aliquots for each experiment. A DMSO stock was first prepared for test article. Aliquots of the DMSO solution were dosed into 700 μL of matrix, which had been pre-warmed to 37° C., at a final test article concentration of 1 μM. […] Samples were stored at 4° C. until the end of experiment. After final time point was sampled, the plate was mixed and then centrifuged at 3,000 rpm for 10 minutes. Calibration standards were prepared in matched matrix. […] Analytical conditions are outlined in Appendix 13-1.
as §1, with “17-1.” for “8-1.”

[1] = SIF + Carboxypeptidase A, 0 min, 1 μM
[2] = SIF + Carboxypeptidase A, 15 min, 1 μM
[3] = SIF + Carboxypeptidase A, 30 min, 1 μM
[4] = SIF + Carboxypeptidase A, 60 min, 1 μM
[5] = SIF + Carboxypeptidase A, 120 min, 1 μM
[6] = SIF + Carboxypeptidase B, 0 min, 1 μM
[7] = SIF + Carboxypeptidase B, 15 min, 1 μM
[8] = SIF + Carboxypeptidase B, 30 min, 1 μM
[9] = SIF + Carboxypeptidase B, 60 min, 1 μM
[10] = SIF + Carboxypeptidase B, 120 min, 1 μM
[11] = SIF + Chymotrypsin, 0 min, 1 μM
[12] = SIF + Chymotrypsin, 15 min, 1 μM
[13] = SIF + Chymotrypsin, 30 min, 1 μM
[14] = SIF + Chymotrypsin, 60 min, 1 μM
[15] = SIF + Chymotrypsin, 120 min, 1 μM
[16] = simulated intestinal fluid with carboxypeptidase A, pH 6.8, SIF + Carboxypeptidase A, read-out: Half-life
[17] = simulated intestinal fluid with carboxypeptidase B, pH 6.8, SIF + Carboxypeptidase B, read-out: Half-life
[18] = simulated intestinal fluid with chymotrypsin, pH 6.8, SIF + Chymotrypsin, read-out: Half-life
[19] = simulated intestinal fluid with elastase, pH 6.8, SIF + Elastase, read-out: Half-life
[20] = simulated intestinal fluid with trypsin, pH 6.8, SIF + Trypsin, read-out: Half-life

CCCCCCCCCCCCCCCC(=O)NCCOC(=O)CCC(=O)OC(CO)CO [Compound I-8]
% Remaining of Initial [1]: 100%
% Remaining of Initial [2]: 33%
% Remaining of Initial [3]: 8.7%
% Remaining of Initial [4]: <1.0%
% Remaining of Initial [5]: <1.0%
% Remaining of Initial [6]: 100%
% Remaining of Initial [7]: 30%
% Remaining of Initial [8]: 7.1%
% Remaining of Initial [9]: <1.0%
% Remaining of Initial [10]: <1.0%
% Remaining of Initial [11]: 100%
% Remaining of Initial [12]: 36%
% Remaining of Initial [13]: 8.7%
% Remaining of Initial [14]: <1.0%
% Remaining of Initial [15]: <1.0%
% Remaining of Initial (SIF + Elastase, 0 min, 1 μM): 100%
% Remaining of Initial (SIF + Elastase, 15 min, 1 μM): 38%
% Remaining of Initial (SIF + Elastase, 30 min, 1 μM): 17%
% Remaining of Initial (SIF + Elastase, 60 min, 1 μM): 16%
% Remaining of Initial (SIF + Elastase, 120 min, 1 μM): 17%
% Remaining of Initial (SIF + Trypsin, 0 min, 1 μM): 100%
% Remaining of Initial (SIF + Trypsin, 15 min, 1 μM): 52%
% Remaining of Initial (SIF + Trypsin, 30 min, 1 μM): 31%
% Remaining of Initial (SIF + Trypsin, 60 min, 1 μM): 28%
% Remaining of Initial (SIF + Trypsin, 120 min, 1 μM): 25%
half-life at 1 μM [16]: < 15 min
half-life at 1 µM (simulated intestinal fluid with carboxypeptidase A, pH 6.8, SIF + Carboxypeptidase A, read-out: Half-life, calculated value in parentheses): 9.2 min
half-life at 1 µM [17]: < 15 min
half-life at 1 µM (simulated intestinal fluid with carboxypeptidase B, pH 6.8, SIF + Carboxypeptidase B, read-out: Half-life, calculated value in parentheses): 8.5 min
half-life at 1 μM [18]: < 15 min
half-life at 1 μM (simulated intestinal fluid with chymotrypsin, pH 6.8, SIF + Chymotrypsin, read-out: Half-life, calculated value in parentheses): 9.6 min
half-life at 1 μM [19]: < 15 min
half-life at 1 µM (simulated intestinal fluid with elastase, pH 6.8, SIF + Elastase, read-out: Half-life, calculated value in parentheses): 12 min
half-life at 1 μM [20]: 25 min

CC/C=C\C/C=C\C/C=C\C/C=C\C/C=C\CCCC(=O)OCCNC(=O)CCCCCCCCCCCCCCC [Compound I-5]
% Remaining of Initial (n = 1) [1]: 100%
% Remaining of Initial (n = 1) [2]: 84%
% Remaining of Initial (n = 1) [3]: 63%
% Remaining of Initial (n = 1) [4]: 39%
% Remaining of Initial (n = 1) [5]: 15%
% Remaining of Initial (n = 1) [6]: 100%
% Remaining of Initial (n = 1) [7]: 94%
% Remaining of Initial (n = 1) [8]: 62%
% Remaining of Initial (n = 1) [9]: 43%
% Remaining of Initial (n = 1) [10]: 14%
% Remaining of Initial (n = 1) [11]: 100%
% Remaining of Initial (n = 1) [12]: 75%
% Remaining of Initial (n = 1) [13]: 59%
% Remaining of Initial (n = 1) [14]: 37%
% Remaining of Initial (n = 1) [15]: 23%
% Remaining of Initial (n = 1) (SIF + Elastase, 0 min, 1 μM): 100%
% Remaining of Initial (n = 1) (SIF + Elastase, 15 min, 1 μM): 103%
% Remaining of Initial (n = 1) (SIF + Elastase, 30 min, 1 μM): 70%
% Remaining of Initial (n = 1) (SIF + Elastase, 60 min, 1 μM): 48%
% Remaining of Initial (n = 1) (SIF + Elastase, 120 min, 1 μM): 35%
% Remaining of Initial (n = 1) (SIF + Pancreatin, 0 min, 1 μM): 100%
% Remaining of Initial (n = 1) (SIF + Pancreatin, 15 min, 1 μM): 13%
% Remaining of Initial (n = 1) (SIF + Pancreatin, 30 min, 1 μM): <1.0%
% Remaining of Initial (n = 1) (SIF + Pancreatin, 60 min, 1 μM): <1.0%
% Remaining of Initial (n = 1) (SIF + Pancreatin, 120 min, 1 μM): <1.0%
% Remaining of Initial (n = 1) (SIF + Trypsin, 0 min, 1 μM): 100%
% Remaining of Initial (n = 1) (SIF + Trypsin, 15 min, 1 μM): 81%
% Remaining of Initial (n = 1) (SIF + Trypsin, 30 min, 1 μM): 67%
% Remaining of Initial (n = 1) (SIF + Trypsin, 60 min, 1 μM): 44%
% Remaining of Initial (n = 1) (SIF + Trypsin, 120 min, 1 μM): 26%
half-life at 1 μM (simulated intestinal fluid with carboxypeptidase A, pH 6.8, SIF + Carboxypeptidase A, 1 μM, read-out: Half-life): 44 min
half-life at 1 μM (simulated intestinal fluid with carboxypeptidase B, pH 6.8, SIF + Carboxypeptidase B, 1 μM, read-out: Half-life): 45 min
half-life at 1 μM (simulated intestinal fluid with chymotrypsin, pH 6.8, SIF + Chymotrypsin, 1 μM, read-out: Half-life): 47 min
half-life at 1 μM (simulated intestinal fluid with elastase, pH 6.8, SIF + Elastase, 1 μM, read-out: Half-life): 65 min
half-life at 1 μM (simulated intestinal fluid with pancreatin, pH 6.8, SIF + Pancreatin, 1 μM, read-out: Half-life): 5.1 min
half-life at 1 μM (simulated intestinal fluid with trypsin, pH 6.8, SIF + Trypsin, 1 μM, read-out: Half-life): 56 min

CCCCCCCCCCCCCCCC(=O)NCCOC(=O)CCC(=O)OC(COC(=O)CCC)COC(=O)CCC [Compound I-16]
% Remaining of Initial [1]: 100%
% Remaining of Initial [2]: 88%
% Remaining of Initial [3]: 74%
% Remaining of Initial [4]: 60%
% Remaining of Initial [5]: 32%
% Remaining of Initial [6]: 100%
% Remaining of Initial [7]: 94%
% Remaining of Initial [8]: 87%
% Remaining of Initial [9]: 68%
% Remaining of Initial [10]: 37%
% Remaining of Initial [11]: 100%
% Remaining of Initial [12]: 103%
% Remaining of Initial [13]: 90%
% Remaining of Initial [14]: 68%
% Remaining of Initial [15]: 35%
% Remaining of Initial (SIF + Elastase, 0 min, 1 μM): 100%
% Remaining of Initial (SIF + Elastase, 15 min, 1 μM): 72%
% Remaining of Initial (SIF + Elastase, 30 min, 1 μM): 50%
% Remaining of Initial (SIF + Elastase, 60 min, 1 μM): 27%
% Remaining of Initial (SIF + Elastase, 120 min, 1 μM): 7.1%
% Remaining of Initial (SIF + Trypsin, 0 min, 1 μM): 100%
% Remaining of Initial (SIF + Trypsin, 15 min, 1 μM): 89%
% Remaining of Initial (SIF + Trypsin, 30 min, 1 μM): 82%
% Remaining of Initial (SIF + Trypsin, 60 min, 1 μM): 62%
% Remaining of Initial (SIF + Trypsin, 120 min, 1 μM): 37%
half-life at 1 μM [16]: 75 min
half-life at 1 µM [17]: 89 min
half-life at 1 μM [18]: 84 min
half-life at 1 μM [19]: 31 min
half-life at 1 μM [20]: 85 min
